Laboratory results: ChEMBL document CHEMBL3297650, “Discovery of novel oxindole derivatives as potent α-glucosidase inhibitors” (Bioorg Med Chem, 2014)

Assay: Inhibition of yeast alpha-glucosidase (unknown origin) using para-nitrophenyl glucopyranoside as substrate preincubated for 10 mins before substrate addition measured after 30 mins by spectrophotometry
Set-up: species or system Saccharomyces cerevisiae

| SMILES | IC50 |
| --- | --- |
| O=C1Nc2cc(Cl)ccc2/C1=C\c1ccc(O)c(O)c1 | 2.71 µM |
| CCOc1cccc(/C=C2/C(=O)Nc3cc(Cl)ccc32)c1O | 37.9 µM |
| O=C1Nc2cc(Cl)ccc2/C1=C\c1cccc(O)c1 | 15.2 µM |
| O=C1Nc2cc(Cl)ccc2/C1=C\c1ccc(Cl)cc1Cl | 55.6 µM |
| O=C1Nc2cc(Cl)ccc2/C1=C\c1ccc([N+](=O)[O-])cc1 | 84.4 µM |
| CN(C)c1ccc(/C=C2/C(=O)Nc3cc(Cl)ccc32)cc1 | 91.2 µM |
| O=C1Nc2cc(Cl)ccc2/C1=C\c1ccccc1 | 196 µM |
| COc1ccc(/C=C2/C(=O)Nc3cc(Cl)ccc32)c(OC)c1OC | 341 µM |
| COc1ccc(/C=C2/C(=O)Nc3cc(Cl)ccc32)cc1 | 108 µM |
| O=C1Nc2cc(Cl)ccc2/C1=C\c1c(Cl)cccc1Cl | 52.9 µM |
| CC(C)c1ccc(/C=C2/C(=O)Nc3cc(Cl)ccc32)cc1 | 14.3 µM |

More lines, in order of falling IC50, values ahead:

| IC50 | SMILES |
| --- | --- |
| 411 µM | COc1ccc(/C=C2/C(=O)Nc3cc(Cl)ccc32)cc1OC |
| 173 µM | O=C1Nc2cc(Cl)ccc2/C1=C\c1ccco1 |
| 139 µM | COc1cccc(/C=C2/C(=O)Nc3cc(Cl)ccc32)c1 |
| 115 µM | Cc1ccc(/C=C2/C(=O)Nc3cc(Cl)ccc32)cc1 |
| 110 µM | O=Cc1ccc(/C=C2/C(=O)Nc3cc(Cl)ccc32)cc1 |
| 102 µM | O=C1Nc2cc(Cl)ccc2/C1=C\c1cccc2ccccc12 |
| 99.7 µM | CCOc1ccc(/C=C2/C(=O)Nc3cc(Cl)ccc32)cc1 |
| 82.2 µM | COc1ccc(O)c(/C=C2/C(=O)Nc3cc(Cl)ccc32)c1 |
| 73.1 µM | O=C1Nc2cc(Cl)ccc2/C1=C\c1ccccc1Cl |
| 72.2 µM | COc1cccc(/C=C2/C(=O)Nc3cc(Cl)ccc32)c1O |
| 51.8 µM | CSc1ccc(/C=C2/C(=O)Nc3cc(Cl)ccc32)cc1 |
| 24.7 µM | O=C1Nc2cc(Cl)ccc2/C1=C\c1ccc(O)cc1 |
| 17.3 µM | O=C1Nc2cc(Cl)ccc2/C1=C\c1c2ccccc2cc2ccccc12 |
| 11.4 µM | O=C1Nc2cc(Cl)ccc2/C1=C\c1ccccc1[N+](=O)[O-] |
